Laboratory results taken from patent US20220008391A1, “NOVEL COMPOUNDS FOR CONTROLLING ARTHROPODS” (Bayer Animal Health GmbH, priority 2018, published 2022).
≈ marks a conversion by molar mass, not a printed value.

What was measured:
[1] = Measurement of solubility in buffer at pH 6.5; type: physicochemical; settings: aqueous buffer, kinetic from dmso stock; PBS buffer pH 6.5, shaken 24h at rt, LC-MSMS; read-out: Solubility of example compounds at pH 6.5
Method: Measurement of Solubility in Buffer at pH 6.5 2-4 mg of the test compound are dissolved in DMSO to reach a concentration of 50 g/L (solution A). To 10 μl of this solution 960 μl PBS buffer pH 6.5 are added (final concentration: 515 μg/1); the mixture is shaken for 24h at rt in a 96 well plate. An aliquot is centrifuged at 42000 rpm für 30 min. The supernatant is diluted with acetonitrile/water (8:2) 1:10 and 1:1000 resp. This diluted samples are analyzed by LC-MSMS. Calibration: 10 μl of solution A are diluted with 823 μl DMSO (final concentration: 600 μg/ml), which is further diluted with acetonitrile/water 8:2 by a factor of 100 (provides solution B). The calibration curve is obtained from solution B by further diluting with acetonitrile/water 8:2 with target concentrations of 1.2-12-60-600 ng/ml and injecting these four solutions for MS measurement. PBS-Puffer: 6.18 g sodium chloride and 3.96 g sodium dihydrogen phosphate are dissolved in 1 L aqua dist., the pH is adjusted to 6.5 with 1N sodium hydroxide. The following conditions were used for quantification: Autosampler without auto inject ahead setting, column: Waters OASIS HLB, 2,1×20 mm, 25μ, column temperature: 30° C., flow rate: 2.5 mL/min, injected volume: 2 μl, Splitter (before MS) 1:20.

Dermacentor variabilis [2] = experiment: Antiparasitic activity after administration to dogs, D. variabilis ticks; type: in vivo; settings: sc
Method: Measurement of the Antiparasitic Activity after Administration of a Prodrug to Dogs
Compounds were dissolved in the appropriate volume of glycerol formal (p.a.) just before application to the animals (dose volume was adjusted to 0.1 ml/kg bodyweight). Dogs were injected intravenously respective subcutaneously (see table 8 for details).
Dogs were infested with ectoparasites according to table on study 1 day prior to counting for fleas, 2 days prior to counting for RS, IR, DV ticks and 3 days prior to counting for AA ticks. For this purpose, dogs were placed in an individually labeled box with grid windows. The ticks were released onto the back of the dogs and were allowed to disperse and move into the hair without disturbance. The dog remained in the box for approximately 120 minutes with the lid closed and the light switched off in the room. For flea infestations, flea containers were opened in the animal's cage and fleas were applied on the dog's back between the shoulders.
Tick counts including removal of I. ricinus, R. sanguineus and D. variabilis were conducted 48(±4) hours after the infestation. Tick counts including removal of A. americanum were conducted 72(±4) hours after the infestation. Flea counts were conducted 24(±4) hours after the infestation.
On each parasite assessment day percent efficacy was calculated as arithmetic mean parasite numbers as life attached and live free tick numbers and live flea numbers of the respective study group in comparison to parasite counts on a placebo non-treated control group.

[3] = Degradation of prodrugs and release of parent compound in dog plasma; type: in vitro ADME
Method: Measurement of Release of Parent Compound in Dog Plasma 1 mg of the test compound was dissolved in 0.5 mL acetonitrile/dimethylsulfoxide 9:1. For complete dissolution the HPLC vial was shaken and treated with ultrasound. 20 μl of this solution were added to 1 mL of dog plasma (Beagle) under vortexing at a temperature of 37° C. Aliquots (100 μL each) were taken at 0.17, 0.5, 1, 1.5, 2 and 4 hours. Each aliquot was transferred to a vial containing 300 μL of acetonitrile/citric acid buffer pH 3 80:20. These solutions were centrifuged at 5000 rpm for 10 minutes. The supernatant was analysed by HPLC (Method 8) to determine the amount of the test compound. In addition, the reaction mixture was analysed by method 9 (HPLC-MS) at the final timepoint. Both decrease of the prodrug concentration and increase of parent compound concentration were monitored. All data is given as percent area of the prodrug at t0.

Ctenocephalides felis = experiment: Antiparasitic activity after administration to rats, fleas; type: in vivo; settings: for flea efficacy on rats compared with the parent drug also injected subcutaneously: SC; for Efficacy SD42: sc, CF A, study day 42, 13.33-13.98 mg/kg prodrugs
Method: (§1) Measurement of the Antiparasitic Activity after Administration of a Prodrug to Rats Compounds were dissolved in the appropriate volume of glycerol formal (p.a.) just before application to the animals (dose volume was adjusted to 0.03 mL/kg bodyweight). 5 rats per group were either injected intraperitoneally or subcutaneously. Rats were infested with 30 Dermacentor variabilis nymphs on study days −2, 7, 14, 21, 28, 35 and 30 adult Ctenocephalides fleas on study days −1, 8, 15, 22, 29, 36. […] Percent efficacy was calculated as arithmetic mean parasite numbers as life attached tick numbers and live flea numbers of the respective study group in comparison to parasite counts on a placebo-treated control group. Infestation of groups with less than 75% efficacy on two consecutive counting occasions will terminated for the respective parasite.

Dermacentor variabilis [4] = experiment: Antiparasitic activity after administration to rats, tick nymphs; type: in vivo; settings: for tick efficacy on rats compared with the parent drug also injected subcutaneously: SC; for Efficacy SD42: sc, DV N, study day 42, 13.33-13.98 mg/kg prodrugs
Method: as §1

| Compound | solubility at 24 h [1] | flea efficacy on rats compared with the parent drug also injected subcutaneously (Ctenocephalides felis) | Efficacy SD42 (Ctenocephalides felis) | tick efficacy on rats compared with the parent drug also injected subcutaneously (Dermacentor variabilis [4]) | Efficacy SD42 (Dermacentor variabilis [4]) | other results |
| --- | --- | --- | --- | --- | --- | --- |
| N#CC1(N(COC(=O)OCCOC(=O)/C=C/C(=O)O)C(=O)c2cc(-c3cnn(-c4c(Cl)cc(C(F)(C(F)(F)F)C(F)(F)F)cc4OC(F)(F)F)c3)ccc2Cl)CC1 [Example 1, (11E)-1-(2-Chloro-5-{1-[2-chloro-4-(1,1,1,2,3,3,3-heptafluoropropan-2-yl)-6-(trifluoromethoxy)phenyl]-1H-pyrazol-4-yl}phenyl)-2-(1-cyanocyclopropyl)-1,5,10-trioxo-4,6,9-trioxa-2-azatridec-11-en-13-oic Acid] | 5 µg/mL (≈ 5.78 µM) | superior | 79% | superior | 81% | duration of efficacy against D. variabilis as least sensitive species (Dermacentor variabilis [2]): five; % Efficacy in study month 4 (Dermacentor variabilis [2]; 13.33 mg/kg (=10 parent), DV, study 4, month 4): 96%; % Efficacy in study month 5 (Dermacentor variabilis [2]; 13.33 mg/kg (=10 parent), DV, study 4, month 5): 100%; % Efficacy in study month 6 (Dermacentor variabilis [2]; 13.33 mg/kg (=10 parent), DV, study 4, month 6): 77%; % Parent Drug 4 h ([3]; Beagle, dog, 4 h, 39.2 µg/mL): 32%; recovery at 0.17 h, 39 µg/mL ([3]; dog plasma (Beagle), 37° C., 0.17 h, percent area of prodrug at t0): 100%; recovery at 0.5 h, 39 µg/mL ([3]; dog plasma (Beagle), 37° C., 0.5 h): 100%; recovery at 1 h, 39 µg/mL ([3]; dog plasma (Beagle), 37° C., 1 h): 100%; recovery at 1.5 h, 39 µg/mL ([3]; dog plasma (Beagle), 37° C., 1.5 h): 88%; recovery at 2 h, 39 µg/mL ([3]; dog plasma (Beagle), 37° C., 2 h): 82%; recovery at 4 h, 39 µg/mL ([3]; dog plasma (Beagle), 37° C., 4 h): 54% |
| CC(C)(COC(=O)/C=C/C(=O)O)COC(=O)OCN(C(=O)c1cc(-c2cnn(-c3c(Cl)cc(C(F)(C(F)(F)F)C(F)(F)F)cc3OC(F)(F)F)c2)ccc1Cl)C1(C#N)CC1 [Example 4, (12E)-1-(2-chloro-5-{1-[2-chloro-4-(1,1,1,2,3,3,3-heptafluoropropan-2-yl)-6-(trifluoromethoxy)phenyl]-1H-pyrazol-4-yl}phenyl)-2-(1-cyanocyclopropyl)-8,8-dimethyl-1,5,11-trioxo-4,6,10-trioxa-2-azatetradec-12-en-14-oic Acid] | 2 µg/mL (≈ 2.2 µM) | superior |  | superior |  |  |
| N#CC1(N(COC(=O)O[C@H]2CC[C@@H](OC(=O)/C=C/C(=O)O)CC2)C(=O)c2cc(-c3cnn(-c4c(Cl)cc(C(F)(C(F)(F)F)C(F)(F)F)cc4OC(F)(F)F)c3)ccc2Cl)CC1 [Example 14, (2E)-4-({cis-4-[({[(2-chloro-5-{1-[2-chloro-4-(1,1,1,2,3,3,3-heptafluoropropan-2-yl)-6-(trifluoromethoxy)phenyl]-1H-pyrazol-4-yl}benzoyl)(1-cyanocyclopropyl)amino]methoxy}carbonyl)oxy]cyclohexyl}oxy)-4-oxobut-2-enoic Acid] | 19 µg/mL (≈ 20.7 µM) |  |  |  |  |  |

Now from value to compound, other results behind:

| solubility at 24 h [1] | Compound | flea efficacy on rats compared with the parent drug also injected subcutaneously (Ctenocephalides felis) | Efficacy SD42 (Ctenocephalides felis) | tick efficacy on rats compared with the parent drug also injected subcutaneously (Dermacentor variabilis [4]) | Efficacy SD42 (Dermacentor variabilis [4]) | other results |
| --- | --- | --- | --- | --- | --- | --- |
| 4 µg/mL (≈ 4.55 µM) | N#CC1(N(COC(=O)OCCCOC(=O)/C=C/C(=O)O)C(=O)c2cc(-c3cnn(-c4c(Cl)cc(C(F)(C(F)(F)F)C(F)(F)F)cc4OC(F)(F)F)c3)ccc2Cl)CC1 [Example 2, (12E)-1-(2-Chloro-5-{1-[2-chloro-4-(1,1,1,2,3,3,3-heptafluoropropan-2-yl)-6-(trifluoromethoxy)phenyl]-1H-pyrazol-4-yl}phenyl)-2-(1-cyanocyclopropyl)-1,5,11-trioxo-4,6,10-trioxa-2-azatetradec-12-en-14-oic Acid] |  | 69% |  | 82% |  |
| 8 µg/mL (≈ 9.74 µM) | N#CC1(N(COC(=O)OCC2(C(=O)O)CC2)C(=O)c2cc(-c3cnn(-c4c(Cl)cc(C(F)(C(F)(F)F)C(F)(F)F)cc4OC(F)(F)F)c3)ccc2Cl)CC1 [Example 35, 1-{[({[(2-chloro-5-{1-[2-chloro-4-(1,1,1,2,3,3,3-heptafluoropropan-2-yl)-6-(trifluoromethoxy)phenyl]-1H-pyrazol-4-yl}benzoyl)(1-cyanocyclopropyl)amino]methoxy}carbonyl)oxy]methyl}cyclopropane-1-carboxylic Acid] |  |  |  |  |  |
